# Tested on: platelet aggregation induced by ADP (platelet rich plasma)
# Assay: Inhibitory Effect on Platelet Aggregation in Guinea Pigs (induced by ADP)
# Assay type: cell-based
# Conditions: Cavia porcellus; guinea pig platelet rich plasma, about 400,000 platelets/μl, 37° C., ADP final concentration 1 μM, test drug added 2 minutes before ADP; read-out: Inhibition of platelet aggregation by ADP, IC50
# Method: Blood was collected from abdominal aorta of male guinea pigs under anesthesia with pentobarbital (20 mg/kg, i.p.) using sodium citrate as an anticoagulant (final concentration: 0.315%). The sodium citrate-supplemented blood was centrifuged at 1000 g for […] to obtain platelet rich plasma (PRP), which was further centrifuged at 1000 g for 10 minutes respectively at room temperature to obtain platelet poor plasma (PPP). The number of platelet was counted at automatic platelet counter (Sysmex E2500, Toaiyo-denshi). PRP was diluted with PPP to adjust the number of platelets to be about 400,000/μl. Platelet aggregation was measured as follows, using an 8-channel aggregometer (NBS HEMA TRACER VI, Niko Bioscience Inc.): The PRP (250 μl) was incubated at 37° C. for 2 minutes, to n added 25 μl of a test drug solution. Two minutes later, 25 μl of an agent (ADP; finalconcentration: 1 μM) for causing agglutination. The effect of the test drug was shown by the inhibition rate of the maximum aggregation rate of the test group against that of the control group.
row,Compound,IC50 [µM]
1,COC(=O)C[C@H]1C(=O)N(CC(=O)O)CCN1C(=O)[C@H](Cc1ccc(OC)cc1)NC(=O)C1CCN(c2ccncc2)CC1 [compound 9],0.07
2,COC(=O)C[C@H]1C(=O)N(CC(=O)OC)CCN1C(=O)CCC(=O)N1CCN(c2ccccn2)CC1 [compound 12],0.038
3,COC(=O)C[C@H]1C(=O)N(CC(=O)OC)CCN1C(=O)CCC(=O)N1CCN(c2ncccn2)CC1 [compound 14],0.075
4,COC(=O)C[C@H]1C(=O)N(CC(=O)OC(C)(C)C)CCN1C(=O)[C@H](CC(=O)N1CCN(c2ccncc2)CC1)NC(=O)OC(C)(C)C [compound 20],0.044
5,COC(=O)C[C@H]1C(=O)N(CC(=O)O)CCN1C(=O)[C@H](CC(=O)N1CCN(c2ccncc2)CC1)NC(=O)OC [compound 24],0.062
6,COC(=O)C[C@H]1C(=O)N(CC(=O)O)CCN1C(=O)[C@@H](CC(=O)N1CCN(c2ccncc2)CC1)NS(=O)(=O)c1ccc(OC)cc1 [compound 31],0.06
7,COC(=O)C[C@H]1C(=O)N(CC(=O)O)CCN1C(=O)[C@H](CC(=O)N1CCN(c2ccncc2)CC1)NS(=O)(=O)c1ccc(OC)cc1 [compound 33],0.24
8,COC(=O)C[C@H]1C(=O)N(CC(=O)O)CCN1C(=O)[C@H](CC(=O)N1CCN(c2ccncc2)CC1)NCc1ccc(OC)cc1 [compound 36],0.22
9,CN[C@H](CC(=O)N1CCN(c2ccncc2)CC1)C(=O)N1CCN(CC(=O)O)C(=O)[C@@H]1CC(=O)OC [compound 40],0.058
10,COC(=O)C[C@H]1C(=O)N(CC(=O)O)CCN1C(=O)[C@@H](CC(=O)N1CCN(c2ccncc2)CC1)NC(=O)OCOC(=O)C(C)(C)C [compound 43],0.099
